# In US9782377B2, “Composition for normalization of infradian rhythm” (SUNTORY HOLDINGS LIMITED, priority 2003, dated 2017):
# Tested on: male Fischer rats
# Assay: Days until circadian rhythm synchronized after 6-hour backward/forward phase change of light-and-dark cycle
# Assay type: in vivo, rat
# Details: for days required for synchronization, backward movement of the phase: 6 hours backward; for days required for synchronization, forward movement of the phase: 6 hours forward
smiles,measurement,setting,value
"CCCCC/C=C\C/C=C\C/C=C\C/C=C\CCCC(=O)OC(COC(=O)CCCCCCC)COC(=O)CCCCCCC [8A8, 1,3-capryloyl-2-arachidonoyl-glycerol]",time (days) required for synchronization,overall conclusion on ingestion of 8A8 versus control feed,shortened
same,"days required for synchronization, backward movement of the phase","rats of 2 months age, 8A8-compounded feed (control feed group 3.7 days)",4.1 days
same,"days required for synchronization, forward movement of the phase","rats of 2 months age, 8A8-compounded feed (control feed group 9.8 days)",9.43 days
same,"days required for synchronization, backward movement of the phase","rats of 18 months age, 8A8-compounded feed (control feed group 7.28 days)",5.72 days
same,"days required for synchronization, forward movement of the phase","rats of 18 months age, 8A8-compounded feed (control feed group 5.63 days)",3.32 days
